Test results published in patent US6620839B2, “1,3-disubstituted and 1,3,3-trisubstituted pyrrolidines as histamine-3 receptor ligands and their therapeutic applications” (Abbott Laboratories, priority 2000, dated 2003).

Each compound was assayed against T1, histamine-3 receptor (Rattus norvegicus, UniProt Q9QYN8) (assay: Histamine-3 receptor binding, (3H)-N-α-methylhistamine displacement in rat cortical membranes). Conditions: male Sprague-Dawley rat brain cortical membranes; (3H)-N-α-methylhistamine ~0.6 nM; 30 minutes at 25° C.; Cheng-Prusoff.
T1 construct: from tissue; host or cells: male Sprague-Dawley rat brain cortex membranes
T1 sequence (Q9QYN8 whole entry): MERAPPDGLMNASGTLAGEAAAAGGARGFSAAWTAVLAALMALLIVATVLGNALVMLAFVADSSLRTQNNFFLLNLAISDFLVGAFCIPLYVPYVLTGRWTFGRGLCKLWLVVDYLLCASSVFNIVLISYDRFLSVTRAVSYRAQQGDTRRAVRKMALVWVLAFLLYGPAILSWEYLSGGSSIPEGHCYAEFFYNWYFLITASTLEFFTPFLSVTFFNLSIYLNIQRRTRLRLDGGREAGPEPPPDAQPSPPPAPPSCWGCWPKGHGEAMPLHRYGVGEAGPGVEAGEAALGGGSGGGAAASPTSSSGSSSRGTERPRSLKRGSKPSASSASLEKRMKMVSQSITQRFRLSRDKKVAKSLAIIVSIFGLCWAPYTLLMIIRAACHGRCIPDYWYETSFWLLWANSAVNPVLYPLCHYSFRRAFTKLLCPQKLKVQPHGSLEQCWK
Procedure: Briefly, male Sprague-Dawley rat brain cortices were homogenized (1 g tissue/10 mL buffer) in 50 mM Tris-HCl/5 mM EDTA containing protease inhibitor cocktail (Calbiochem) using a polytron set at 20,500 rpm. Homogenates were centrifuged for 20 minutes at 40,000×g. The supernatant was decanted, and pellets were weighed. The pellet was resuspended by polytron homogenization in 40 mL 50 mM Tris-HCl/5 mM EDTA with protease inhibitors and centrifuged for 20 minutes at 40,000×g. […] Test compounds were dissolved in DMSO to provide 20 mM solution, serially diluted and then added to the incubation mixtures prior to initiating the incubation assay by addition of the membranes. Thioperamide (3 μM) was used to determine nonspecific binding. Binding incubations were conducted for 30 minutes at 25° C. and terminated by addition of 2 mL of ice cold 50 mM Tris-HCl (pH 7.7) and filtration through 0.3% polyethylenimine-soaked Unifilter plates (Packard). These filters were washed 4 additional times with 2 mL of ice-cold 50 mM Tris-HCl and dried for 1 hour. Radioactivity was determined using liquid scintillation counting techniques. Results were analyzed by Hill transformation and Ki values were determined using the Cheng-Prusoff equation.
Compound O=C(c1ccc(OCCCN2CC[C@@H](NS(=O)(=O)c3cccc4cccnc34)C2)cc1)C1CC1 [Example 84, N-((3R)-1-{3-[4-(cyclopropylcarbonyl)phenoxy]propyl}pyrrolidinyl)-8-quinolinesulfonamide] has a Ki of 9.5 nM.
In the case of CCCCOc1ccc(S(=O)(=O)N[C@@H]2CCN(CCCOc3ccc(C(=O)C4CC4)cc3)C2)cc1 [Example 85, 4-butoxy-N-((3R)-1-{3-[4-(cyclopropylcarbonyl)phenoxy]propyl}pyrrolidinyl)benzenesulfonamide], the Ki is reported as 5.3 nM.
Work on COc1ccc(S(=O)(=O)N[C@@H]2CCN(CCCOc3ccc(C(=O)C4CC4)cc3)C2)cc1OC [Example 86, N-((3R)-1-{3-[4-(cyclopropylcarbonyl)phenoxy]propyl}pyrrolidinyl)-3,4-dimethoxybenzenesulfonamide] yielded a Ki of 1.8 nM.
In the case of Cc1ccc(S(=O)(=O)N[C@@H]2CCN(CCCOc3ccc(C(=O)C4CC4)cc3)C2)cc1Cl [Example 87, 3-chloro-N-((3R)-1-{3-[4-(cyclopropylcarbonyl)phenoxy]propyl}pyrrolidinyl)-4-methylbenzenesulfonamide], the Ki is reported as 4.9 nM.
With O=C(c1ccc(OCCCN2CC[C@@H](NS(=O)(=O)C=Cc3ccccc3)C2)cc1)C1CC1 [Example 88, N-((3R)-1-{3-[4-(cyclopropylcarbonyl)phenoxy]propyl}pyrrolidinyl)-2-phenylethenesulfonamide] the Ki was 6.8 nM.
For O=C(c1ccc(OCCCN2CC[C@@H](NS(=O)(=O)c3ccccc3OC(F)(F)F)C2)cc1)C1CC1 [Example 89, N-((3R)-1-{3-[4-(cyclopropylcarbonyl)phenoxy]propyl}pyrrolidinyl)-2-(trifluoromethoxy)benzenesulfonamide], the Ki was 11 nM.
For N#Cc1ccccc1S(=O)(=O)N[C@@H]1CCN(CCCOc2ccc(C(=O)C3CC3)cc2)C1 [Example 90, 2-cyano-N-((3R)-1-{3-[4-(cyclopropylcarbonyl)phenoxy]propyl}pyrrolidinyl)benzenesulfonamide], the Ki was 11 nM.
For Cc1cccc(S(=O)(=O)N[C@@H]2CCN(CCCOc3ccc(C(=O)C4CC4)cc3)C2)c1 [Example 91, N-((3R)-1-{3-[4-(cyclopropylcarbonyl)phenoxy]propyl}pyrrolidinyl)-3-methylbenzenesulfonamide], the Ki was 2.8 nM.
For O=C(c1ccc(OCCCN2CC[C@@H](NS(=O)(=O)c3ccc(C(F)(F)F)cc3)C2)cc1)C1CC1 [Example 92, N-((3R)-1-{3-[4-(cyclopropylcarbonyl)phenoxy]propyl}pyrrolidinyl)-4-(trifluoromethyl)benzenesulfonamide], the Ki was 4.9 nM.
Compound O=C(c1ccc(OCCCN2CC[C@@H](NS(=O)(=O)c3cccc(F)c3)C2)cc1)C1CC1 [Example 93, N-((3R)-1-{3-[4-(cyclopropylcarbonyl)phenoxy]propyl}pyrrolidinyl)-3-fluorobenzenesulfonamide] has a Ki of 3.2 nM.
O=C(c1ccc(OCCCN2CC[C@@H](NS(=O)(=O)c3ccc(OC(F)(F)F)cc3)C2)cc1)C1CC1 [Example 94, N-((3R)-1-{3-[4-(cyclopropylcarbonyl)phenoxy]propyl}pyrrolidinyl)-4-(trifluoromethoxy)benzenesulfonamide] was tested, and the Ki was 4.9 nM.
Work on O=C(c1ccc(OCCCN2CC[C@@H](NS(=O)(=O)c3cccc4ccncc34)C2)cc1)C1CC1 [Example 95, N-((3R)-1-{3-[4-(cyclopropylcarbonyl)phenoxy]propyl}pyrrolidinyl)-8-isoquinolinesulfonamide] yielded a Ki of 4.6 nM.
CC(=O)Nc1ccc(S(=O)(=O)N[C@@H]2CCN(CCCOc3ccc(C(=O)C4CC4)cc3)C2)cc1Cl [Example 96, N-(2-chloro-4-{[((3R)-1-{3-[4-(cyclopropylcarbonyl)phenoxy]propyl}pyrrolidinyl)amino]sulfonyl}phenyl)acetamide] was tested, and the Ki was 1.2 nM.
Work on O=C(c1ccc(OCCCN2CC[C@@H](NS(=O)(=O)c3ccc(Cl)c(Cl)c3)C2)cc1)C1CC1 [Example 97, 3,4-dichloro-N-((3R)-1-{3-[4-(cyclopropylcarbonyl)phenoxy]propyl}pyrrolidinyl)benzenesulfonamide] yielded a Ki of 6.7 nM.
For CC(C)(C)OC(=O)N[C@H]1CCN(CCOc2ccc(-c3ccc(C#N)cc3)cc2)C1 [Example 100, tert-butyl (3S)-1-{2-[(4′-cyano[1,1′-biphenyl]-4-yl)oxy]ethyl}pyrrolidinylcarbamate], the Ki was 1630 nM.
For COc1ccc(S(=O)(=O)N[C@@H]2CCN(CCCOc3ccc(-c4ccccn4)cc3)C2)cc1 [Example 101, 4-methoxy-N-((3R)-1-{3-[4-(2-pyridinyl)phenoxy]propyl}pyrrolidinyl)benzenesulfonamide], the Ki was 179 nM.
CC(C)c1ccc(S(=O)(=O)N[C@@H]2CCN(CCCOc3ccc(-c4ccccn4)cc3)C2)cc1 [Example 102, 4-isopropyl-N-((3R)-1-{3-[4-(2-pyridinyl)phenoxy]propyl}pyrrolidinyl)benzenesulfonamide] was tested, and the Ki was 112 nM.
Work on N#Cc1ccc(S(=O)(=O)N[C@@H]2CCN(CCCOc3ccc(-c4ccccn4)cc3)C2)cc1 [Example 103, 4-cyano-N-((3R)-1-{3-[4-(2-pyridinyl)phenoxy]propyl}pyrrolidinyl)benzenesulfonamide] yielded a Ki of 195 nM.
For N#Cc1cccc(S(=O)(=O)N[C@@H]2CCN(CCCOc3ccc(-c4ccccn4)cc3)C2)c1 [Example 104, 3-cyano-N-((3R)-1-{3-[4-(2-pyridinyl)phenoxy]propyl}pyrrolidinyl)benzenesulfonamide], the Ki was 173 nM.
Compound Cn1cnc(S(=O)(=O)N[C@@H]2CCN(CCCOc3ccc(-c4ccccn4)cc3)C2)c1 [Example 105, 1-methyl-N-((3R)-1-{3-[4-(2-pyridinyl)phenoxy]propyl}pyrrolidinyl)-1 H-imidazole-4-sulfonamide] has a Ki of 725 nM.
In the case of COc1ccc(S(=O)(=O)N[C@@H]2CCN(CCCOc3ccc(-c4ccccn4)cc3)C2)cc1OC [Example 106, 3,4-dimethoxy-N-((3R)-1-{3-[4-(2-pyridinyl)phenoxy]propyl}pyrrolidinyl)benzenesulfonamide], the Ki is reported as 168 nM.
In the case of CC(=O)Nc1ccc(S(=O)(=O)N[C@@H]2CCN(CCCOc3ccc(-c4ccccn4)cc3)C2)cc1Cl [Example 107], the Ki is reported as 200 nM.
Compound CN(C(=O)OC(C)(C)C)[C@@H]1CCN(CCCOc2ccc(-c3ccc(C#N)cc3)cc2)C1 [Example 109, tert-butyl (3R)-1-{3-[(4′-cyano[1,1′-biphenyl]-4-yl)oxy]propyl}pyrrolidinyl(methyl)carbamate] has a Ki of 26 nM.
CC(=O)N(C)[C@@H]1CCN(CCCOc2ccc(-c3ccc(C#N)cc3)cc2)C1 [Example 111] showed a Ki of 11 nM.
CN(C(=O)CC(C)(C)C)[C@@H]1CCN(CCCOc2ccc(-c3ccc(C#N)cc3)cc2)C1 [Example 112] showed a Ki of 13 nM.
Compound COC(=O)N(C)[C@@H]1CCN(CCCOc2ccc(-c3ccc(C#N)cc3)cc2)C1 [Example 113, methyl (3R)-1-{3-[(4′-cyano[1,1′-biphenyl]-4-yl)oxy]propyl}pyrrolidinyl(methyl)carbamate] has a Ki of 13 nM.
CCC(C)(C)OC(=O)N(C)[C@@H]1CCN(CCCOc2ccc(-c3ccc(C#N)cc3)cc2)C1 [Example 114, tert-pentyl (3R)-1-{3-[(4′-cyano[1,1′-biphenyl]-4-yl)oxy]propyl}pyrrolidinyl(methyl)carbamate] gave a Ki of 65 nM.
Work on CN(C)C(=O)N(C)[C@@H]1CCN(CCCOc2ccc(-c3ccc(C#N)cc3)cc2)C1 [Example 115, N-((3R)-1-{3-[(4′-cyano[1,1′-biphenyl]-4-yl)oxy]propyl}pyrrolidinyl)-N,N,′N′-trimethylurea] yielded a Ki of 21 nM.
CN(C(=O)N1CCCC1)[C@@H]1CCN(CCCOc2ccc(-c3ccc(C#N)cc3)cc2)C1 [Example 116] was tested, and the Ki was 14 nM.
With CN(C(=O)NC(C)(C)C)[C@@H]1CCN(CCCOc2ccc(-c3ccc(C#N)cc3)cc2)C1 [Example 117, N′-tert-butyl-N-((3R)-1-{3-[(4′-cyano[1,1′-biphenyl]-4-yl)oxy]propyl}pyrrolidinyl)-N-methylurea] the Ki was 45 nM.
CN(C(=O)N1CCOCC1)[C@@H]1CCN(CCCOc2ccc(-c3ccc(C#N)cc3)cc2)C1 [Example 118] was tested, and the Ki was 5.7 nM.
CN(C(=O)c1ccc(F)cc1)[C@@H]1CCN(CCCOc2ccc(-c3ccc(C#N)cc3)cc2)C1 [Example 119] gave a Ki of 7.7 nM.
In the case of CN(C(=O)c1ccc(C#N)cc1)[C@@H]1CCN(CCCOc2ccc(-c3ccc(C#N)cc3)cc2)C1 [Example 120, 4-cyano-N-((3R)-1-{3-[(4′-cyano[1,1′-biphenyl]-4-yl)oxy]propyl}pyrrolidinyl)-N-methylbenzamide], the Ki is reported as 10 nM.
Work on CN(C(=O)c1cccnc1)[C@@H]1CCN(CCCOc2ccc(-c3ccc(C#N)cc3)cc2)C1 [Example 121] yielded a Ki of 16 nM.
CN(C(=O)c1ccco1)[C@@H]1CCN(CCCOc2ccc(-c3ccc(C#N)cc3)cc2)C1 [Example 122] was tested, and the Ki was 20 nM.
CN(C(=O)c1csc(-c2cccnc2)n1)[C@@H]1CCN(CCCOc2ccc(-c3ccc(C#N)cc3)cc2)C1 [Example 123] was tested, and the Ki was 5.6 nM.
Compound CN(C)S(=O)(=O)N(C)[C@@H]1CCN(CCCOc2ccc(-c3ccc(C#N)cc3)cc2)C1 [Example 124] has a Ki of 2.9 nM.
Compound CN([C@@H]1CCN(CCCOc2ccc(-c3ccc(C#N)cc3)cc2)C1)S(=O)(=O)c1cccc(F)c1 [Example 125] has a Ki of 7.4 nM.
In the case of CN([C@@H]1CCN(CCCOc2ccc(-c3ccc(C#N)cc3)cc2)C1)S(=O)(=O)c1ccc(C#N)cc1 [Example 126, 4-cyano-N-((3R)-1-{3-[(4′-cyano[1,1′-biphenyl]-4-yl)oxy]propyl}pyrrolidinyl)-N-methylbenzenesulfonamide], the Ki is reported as 4.6 nM.
